# In article PMC8032764 (Scientific Reports, 2021):
# Several values for one entry are separate records, joined by “and”; a condition that tells them apart may be missing. Equal entries are not always repeated.
# Columns and labels:
# Purinergic P2X = assay: Cerep binding; conditions: 10 μM; [3H]α,β-MeATP; rat urinary bladder
# male F-344 rats = assay: Social approach avoidance test
# Description: Experiments on social approach avoidance were performed as described previously by[41] and[14]. A tracking system (Ethovision, Noldus, The Netherlands) was used to analyse each rat’s pathway.
# cynomolgus macaques = assay: Object retrieval task; assay type: in vivo, Macaca fascicularis; conditions: 2 h prior to testing
# Description: Twelve cynomolgus macaques were presented with a clear acrylic box with one open side baited with a food treat, as described previously[14],[38]. The test is easy when the open side of the box is directed towards the subject and difficult when the open sides face other directions. […] Compound doses were administered in a pseudorandom order. Administration of dose and behavioral measurements were completed blind. Data were analysed using a one-way repeated measures ANOVA followed, in significant cases, by a post hoc Dunnett’s test. Plasma samples were collected from the same three subjects at each dose group at 3 h post administration.
# human GABAA α2β3γ2 = test system: T1, human GABAA α2β3γ2; assay: Two-electrode voltage clamp in Xenopus oocytes, current induced by EC10 of GABA; assay type: cell-based; conditions: 3000 nM
# T1 construct: expressed in transfected cells; host or cells: Xenopus laevis oocytes, cRNA injection
# Description: (§1) Freshly prepared oocytes of maturation stage VI were bought from Ecocyte Bioscience (Castrop-Rauxel, Germany) and, after overnight delivery, plated into 96-well plates (Greiner no. 651101) for microinjection on a ROBOOCYTE R16 system (Multichannel Systems MCS GmbH, Reutlingen, Germany). Each oocyte was injected with roughly 50 nL of RNA solution. The solution for expressing receptors composed of the human α1, β2 and γ2 subunits contained 3 pg/nL of α1 and β2 RNA and 15 pg/nL of γ2 RNA. The solution for expressing human α2β3γ2 receptors contained 2.5 pg/nL of α2 and β3 RNA, 5 pg/nL of γ2 RNA and 10 pg/nL of GABARAP RNA. The solution for expressing human α3β3γ2 receptors contained 1.3 pg/nL of α3 and β3 RNA and 6.5 pg/nL of γ2 RNA. The solution for expressing human α5β3γ2 receptors contained 1.3 pg/nL of α5 and β3 RNA and 13 pg/nL of γ2 RNA. GABARAP was added to the α2β3γ2 subunit mixture since the expression of γ2 would be low otherwise, as indicated by a weak effect of β-CCM[60]. After the microinjection the oocytes were kept at 20 °C temperature until the electrophysiological experiment. Experiments were done 3 to 5 days later on the ROBOOCYTE instrument which employs the two-microelectrode voltage-clamp technique for membrane voltage control and current measurement. […] During current recording and compound testing the cell membrane was constantly clamped to − 80 mV. Current signals were recorded and stored on a PC-type computer using the ROBOOCYTE software.
# (§2) During the microinjection and up to the electrophysiological experiment the oocytes were kept in a solution containing 88 mM NaCl, 1 mM KCl, 2.5 mM NaHCO3, 10 mM HEPES (AppliChem GmbH, Darmstadt, Germany), 0.82 MgSO4, 0.33 mM Ca(NO3)2, 0.33 mM CaCl2, 100 U/mL penicillin (GIBCO, ThermoFisher Scientific) and 100 µg/mL streptomycine (GIBCO, ThermoFisher Scientific). The pH was adjusted to 7.5. During the experiment the voltage-clamped oocyte was constantly superfused by a solution containing 90 mM NaCl, 1 mM KCl, 5 mM HEPES (AppliChem), 1 mM MgCl2 and 1 mM CaCl2 (pH 7.4). GABA and test compounds were added to this solution. GABA concentrations were chosen according to previously determined concentration–response relations for the different human GABAA receptor subunit combinations. Concentrations evoking approximately 10% of a maximal response were selected, i.e., 8 µM for α1β2γ2, 6 µM for α2β3γ2, 10 µM for α3β3γ2 and 5 µM for α5β3γ2. Solutions containing GABA or test compounds were freshly prepared at least every second day. […] Compounds were further diluted in DMSO and finally in extracellular saline to reach a DMSO concentration of 0.1%. The same amount of DMSO was added to the control solutions without test compounds. […]
# human GABAA α1β2γ2 = test system: T2, human GABAA α1β2γ2; assay: as above; assay type: cell-based; conditions: 3000 nM
# T2 construct: expressed in transfected cells; host or cells: Xenopus laevis oocytes, cRNA injection
# Description: as §1, §2
# human GABAA α3β3γ2 = test system: T3, human GABAA α3β3γ2; assay: as above; assay type: cell-based; conditions: 3000 nM
# T3 construct: expressed in transfected cells; host or cells: Xenopus laevis oocytes, cRNA injection
# Description: as §1, §2
# human GABAA α5β3γ2 = human GABAA α5β3γ2 (Homo sapiens, UniProt P18507+P31644); assay: biochemical; conditions: 1 nM [3H]-flumazenil
# Description: HEK293-EBNA cells adapted to grow in suspension were transiently transfected with the plasmids containing the desired GABAA receptor subunit cDNAs at α, β, γ, 1:1:2 ratio using XtremeGENE Q2 (Cat. No. 03045595001, Roche Applied Science, RAS, Rotkreuz, Switzerland) as previously described. GABAA α1β2γ2, α2β3γ2, α3β3γ2, α4β3γ2, α5β3γ2 and α6β3γ2 receptor subtypes were expressed in this system. 48 h post transfection, the cells were harvested and washed three times with cold PBS and frozen at − 80 °C.
# Non-specific binding was determined in the presence of 10 μM diazepam.
# Dopamine D5 = test system: T4, Dopamine D5; assay: Cerep binding; parameters: species or system human; conditions: 10 μM; [3H]SCH 23390; hum. recomb. (GH4)
# T4 construct: host or cells: GH4
# [1] = test system: GABAA Cl- channel (non- selective); assay: Cerep binding; conditions: 10 μM; [35S]TBPS; rat cerebral cortex
# Nociceptin (ORL1) = test system: T5, Nociceptin (ORL1); assay: Cerep binding; parameters: species or system human; conditions: 10 μM; [3H]nociceptin; hum. recomb. (HEK-293)
# T5 construct: host or cells: HEK-293
# Sequence of human GABAA α5β3γ2 (P31644 32-462): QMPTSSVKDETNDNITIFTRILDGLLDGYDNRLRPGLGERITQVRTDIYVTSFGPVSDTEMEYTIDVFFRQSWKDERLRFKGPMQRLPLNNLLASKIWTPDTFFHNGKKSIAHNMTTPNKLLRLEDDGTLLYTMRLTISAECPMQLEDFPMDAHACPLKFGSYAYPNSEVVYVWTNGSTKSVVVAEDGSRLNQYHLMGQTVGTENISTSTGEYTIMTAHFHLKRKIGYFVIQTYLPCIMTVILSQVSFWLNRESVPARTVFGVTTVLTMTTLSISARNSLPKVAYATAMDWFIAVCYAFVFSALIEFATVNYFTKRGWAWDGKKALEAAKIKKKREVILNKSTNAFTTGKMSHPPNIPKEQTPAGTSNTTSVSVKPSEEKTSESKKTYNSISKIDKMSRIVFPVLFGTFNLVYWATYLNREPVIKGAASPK
# Sequence of human GABAA α5β3γ2 (P28472 26-473 partner): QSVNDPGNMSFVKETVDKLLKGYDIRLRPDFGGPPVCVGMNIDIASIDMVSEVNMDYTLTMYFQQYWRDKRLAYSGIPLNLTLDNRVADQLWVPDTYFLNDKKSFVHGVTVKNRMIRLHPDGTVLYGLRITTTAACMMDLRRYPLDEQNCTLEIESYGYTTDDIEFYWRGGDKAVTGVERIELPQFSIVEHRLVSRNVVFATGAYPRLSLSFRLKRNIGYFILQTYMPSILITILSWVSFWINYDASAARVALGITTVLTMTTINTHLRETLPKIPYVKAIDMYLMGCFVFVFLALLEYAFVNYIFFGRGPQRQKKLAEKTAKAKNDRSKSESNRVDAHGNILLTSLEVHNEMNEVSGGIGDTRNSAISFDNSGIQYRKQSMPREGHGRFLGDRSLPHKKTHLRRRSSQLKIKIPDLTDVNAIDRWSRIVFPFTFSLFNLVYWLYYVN
# Sequence of human GABAA α5β3γ2 (P18507 40-475): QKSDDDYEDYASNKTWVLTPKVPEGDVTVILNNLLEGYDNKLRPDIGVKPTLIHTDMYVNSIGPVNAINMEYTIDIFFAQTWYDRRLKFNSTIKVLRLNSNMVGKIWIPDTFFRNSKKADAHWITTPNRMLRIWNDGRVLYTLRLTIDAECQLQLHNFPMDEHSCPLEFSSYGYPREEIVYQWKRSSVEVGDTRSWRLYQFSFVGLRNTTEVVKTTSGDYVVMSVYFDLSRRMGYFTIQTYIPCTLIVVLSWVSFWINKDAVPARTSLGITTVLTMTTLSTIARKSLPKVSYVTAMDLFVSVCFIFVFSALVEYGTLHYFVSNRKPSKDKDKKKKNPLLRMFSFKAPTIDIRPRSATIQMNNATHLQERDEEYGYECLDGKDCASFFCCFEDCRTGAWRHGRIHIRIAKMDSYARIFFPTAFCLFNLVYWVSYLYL
smiles,measurement,setting,value
Cc1onc(-c2ccc(F)cc2)c1COc1ccc(C(=O)N2CCS(=O)(=O)CC2)cn1 [basmisanil],% Inhibition,Purinergic P2X,-7%
same,time spent in the social compartment,"male F-344 rats; 3–100 mg/kg p.o., 1 h prior to testing",did not significantly reduce the time spent in the social compartment
same,anxiogenic-like effect (time in social compartment and in hidden area),male F-344 rats; up to 100 mg/kg p.o.,did not have an anxiogenic-like effect
same,percentage of correct first reaches during difficult trials,cynomolgus macaques; 1 and 30 mg/kg p.o.,no marked improvement on performance
same,percentage of correct first reaches during difficult trials,cynomolgus macaques; 3 and 10 mg/kg p.o.,significantly improved
same,inhibition,human GABAA α2β3γ2,< 10%
same,inhibition,human GABAA α1β2γ2,< 10%
same,inhibition,human GABAA α3β3γ2,< 10%
same,Ki,human GABAA α5β3γ2,5 nM and 5.1 nM
same,% Inhibition,Dopamine D5,-11%
same,% Inhibition,[1],-6%
same,% Inhibition,Nociceptin (ORL1),-4%
